The text below walks through data of US20240018161A1, “MODULATORS OF CYSTIC FIBROSIS TRANSMEMBRANE CONDUCTANCE REGULATOR” (VERTEX PHARMACEUTICALS INCORPORATED, priority 2020, published 2024).

What is called EC50 is the midpoint of the concentration-response curve.

Test [1] has as its target T1, CFTR-mediated chloride transport in human intestinal epithelial enteroid cells (Homo sapiens, UniProt P13569). Kind of test: Membrane potential dye, Enteroid Assay B. The test is classed as cell-based. The note with it: Enteroid Assay B; for EC50: read-out: Ent. B EC50. Here is the method:
Base medium (ADF+++) consisted of Advanced DMEM/Ham's F12, 2 mM Glutamax, 10 mM HEPES, […] penicillin/streptomycin.
Bath 1 Buffer consisted of 1 mM MgCl2, 160 mM NaCl, 4.5 mM KCl, 10 mM HEPES, 10 mM Glucose, 2 mM CaCl2.
Chloride Free Buffer consisted of 1 mM Magnesium Gluconate, 2 mM Calcium Gluconate, 4.5 mM Potassium Gluconate, 160 mM Sodium Gluconate, 10 mM HEPES, 10 mM Glucose.
Bath1 Dye Solution consisted of Bath 1 Buffer, 0.04% Pluronic F127, 20 μM Methyl Oxonol, 30 μM CaCCinh-A01, 30 μM Chicago Sky Blue.
Chloride Free Dye Solution consisted of Chloride Free Buffer, 0.04% Pluronic F127, 20 μM Methyl Oxonol, 30 μM CaCCinh-A01, 30 μM Chicago Sky Blue.
3. Enteroid Cell Harvesting and Seeding
Cells were recovered in cell recovery solution, collected by centrifugation at 650 rpm for 5 min at 4° C., resuspended in TryPLE and incubated for 5 min at 37° C. Cells were then collected by centrifugation at 650 rpm for 5 min at 4° C. and resuspended in IEMM containing 10 μM ROCK inhibitor (RI).
5. Membrane Potential Dye, Enteroid Assay B
Briefly, cells were washed 5 times in Bath 1 Buffer. Bath 1 Dye Solution was added and the cells were incubated for 25 min at room temperature. Following dye incubation, cells were washed 3 times in Chloride Free Dye Solution. Chloride transport was initiated by addition of Chloride Free Dye Stimulation Solution and the fluorescence signal was read for 15 min.

In test [2] the target is T1, CFTR-mediated chloride transport in human intestinal epithelial enteroid cells. Kind of test: Membrane potential dye, Enteroid Assay A. The test is classed as cell-based. The note with it: for EC50: read-out: Ent. A EC50. An outline of the steps: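 Membrane potential dye (20 μM methyl oxonol, with 30 μM CaCCinh-A01 and 30 μM Chicago Sky Blue) loaded 25 min at room temperature into ROCK-inhibitor-seeded human enteroid cells. Chloride-free stimulation buffer triggered transport, followed by 15 min fluorescence. % Activity relative to 3 μM/3 μM/300 nM triple-combination control.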

The mark [3] stands for this setting: enteroid cells incubated with test compound 18-24 hours, acute 10 μM forskolin and 300 nM N-[2,4-bis(1,1-dimethylethyl)-5-hydroxyphenyl]-1,4-dihydro-4-oxoquinoline-3-carboxamide.
Where [4] appears, read: percentage of chloride transport of triple combination control (3 μM N-[(6-amino-2-pyridyl)sulfonyl]-6-(3-fluoro-5-isobutoxy-phenyl)-2-[(4S)-2,2,4-trimethylpyrrolidin-1-yl]pyridine-3-carboxamide based).

Structures are written as SMILES.

T1 sequence (P13569 with tags, fused parts or gaps DEL508-508): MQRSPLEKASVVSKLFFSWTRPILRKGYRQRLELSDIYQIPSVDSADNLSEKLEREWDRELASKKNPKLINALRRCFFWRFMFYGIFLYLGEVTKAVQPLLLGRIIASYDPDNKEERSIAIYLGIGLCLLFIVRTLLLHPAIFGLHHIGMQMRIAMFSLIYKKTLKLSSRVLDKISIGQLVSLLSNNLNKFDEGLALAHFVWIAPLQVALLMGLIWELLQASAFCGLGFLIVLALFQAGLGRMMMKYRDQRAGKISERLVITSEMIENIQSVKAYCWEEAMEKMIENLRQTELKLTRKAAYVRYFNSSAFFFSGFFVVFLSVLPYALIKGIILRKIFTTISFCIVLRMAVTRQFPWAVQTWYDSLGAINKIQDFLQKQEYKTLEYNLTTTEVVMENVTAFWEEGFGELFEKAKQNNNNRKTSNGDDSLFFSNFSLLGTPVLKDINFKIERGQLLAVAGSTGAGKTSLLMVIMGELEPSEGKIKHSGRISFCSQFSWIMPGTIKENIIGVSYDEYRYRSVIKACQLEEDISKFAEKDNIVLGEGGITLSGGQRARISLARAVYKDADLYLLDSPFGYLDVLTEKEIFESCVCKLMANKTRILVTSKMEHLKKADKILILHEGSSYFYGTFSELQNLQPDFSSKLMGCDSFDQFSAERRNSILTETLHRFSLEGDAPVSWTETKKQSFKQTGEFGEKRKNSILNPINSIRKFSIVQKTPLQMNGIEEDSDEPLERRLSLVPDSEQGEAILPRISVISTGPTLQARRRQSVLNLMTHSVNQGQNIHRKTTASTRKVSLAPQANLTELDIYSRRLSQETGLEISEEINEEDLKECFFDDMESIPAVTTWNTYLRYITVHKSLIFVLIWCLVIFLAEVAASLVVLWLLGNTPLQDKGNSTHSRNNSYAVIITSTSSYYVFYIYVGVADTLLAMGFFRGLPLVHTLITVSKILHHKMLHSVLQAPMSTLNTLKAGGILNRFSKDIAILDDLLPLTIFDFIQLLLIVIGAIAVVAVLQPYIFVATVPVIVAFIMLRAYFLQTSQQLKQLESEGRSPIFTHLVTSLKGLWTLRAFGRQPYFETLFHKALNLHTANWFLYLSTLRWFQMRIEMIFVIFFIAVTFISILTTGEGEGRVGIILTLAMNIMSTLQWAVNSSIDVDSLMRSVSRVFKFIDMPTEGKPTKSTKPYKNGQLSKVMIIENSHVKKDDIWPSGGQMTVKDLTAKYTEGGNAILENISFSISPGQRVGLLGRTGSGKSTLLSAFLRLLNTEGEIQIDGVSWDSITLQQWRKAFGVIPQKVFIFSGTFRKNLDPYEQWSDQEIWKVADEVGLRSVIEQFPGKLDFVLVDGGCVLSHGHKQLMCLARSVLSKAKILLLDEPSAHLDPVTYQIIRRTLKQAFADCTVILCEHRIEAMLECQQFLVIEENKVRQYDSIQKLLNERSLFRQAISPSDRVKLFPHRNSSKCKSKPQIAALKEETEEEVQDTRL

As for `Cc1cccc(C)c1-c1cc2nc(n1)NS(=O)(=O)c1cccc(c1)C(=O)N1CCN[C@H](CC(C)C)[C@H](C1)O2` [Compound 118, (16S,17R)-12-(2,6-Dimethylphenyl)-17-(2-methylpropyl)-15-oxa-8λ^6-thia-1,9,11,18,22-pentaazatetracyclo[14.4.1.13,7.110,14]tricosa-3(23),4,6,10(22),11,13-hexaene-2,8,8-trione], in test [1], the “Ent. B Max Activity (%)” value is given as “+++ (+++ is >600%)” and the half-maximal effective concentration (EC50) was less than 1000 nM.

As for `Cc1cccc(C)c1-c1cc2nc(n1)NS(=O)(=O)c1cccc(c1)C(=O)N1Cc3cc(C(C)(C)C)ccc3C(CO2)C1C` (single isomer, unassigned) [Compound 219, 21-tert-butyl-12-(2,6-dimethylphenyl)-25-methyl-15-oxa-8λ^6-thia-1,9,11,26-tetraazapentacyclo[15.7.1.13,7.110,14.018,23]heptacosa-3,5,7(27),10,12,14(26),18,20,22-nonaene-2,8,8-trione], in test [1], the “Ent. B Max Activity (%)” value was “+++ (+++ is >600%)” and the EC50 is less than 1000 nM.

Take `Cc1cccc(C)c1-c1cc2nc(n1)NS(=O)(=O)c1cccc(c1)C(=O)N1C[C@H](O2)c2ccccc2[C@@H]1CC(C)C` (single isomer, unassigned) [Compound 191, 12-(2,6-Dimethylphenyl)-23-(2-methylpropyl)-15-oxa-8λ^6-thia-1,9,11,25-tetraazapentacyclo[14.7.1.13,7.110,14.017,22]hexacosa-3(26),4,6,10(25),11,13,17,19,21-nonaene-2,8,8-trione]: in test [1], the “Ent. B Max Activity (%)” value was “++ (++ is 30-60%)” and the EC50 is less than 1000 nM.

In the case of `Cc1cccc(C)c1-c1cc2nc(n1)NS(=O)(=O)c1cccc(c1)C(=O)N1CCN(C(=O)CC(C)(C)C)[C@H](CC(C)C)[C@H](C1)O2` [Compound 122, (16S,17R)-18-(3,3-Dimethylbutanoyl)-12-(2,6-dimethylphenyl)-17-(2-methylpropyl)-15-oxa-8λ^6-thia-1,9,11,18,22-pentaazatetracyclo[14.4.1.13,7.110,14]tricosa-3(23),4,6,10(22),11,13-hexaene-2,8,8-trione], in test [1], the “Ent. B Max Activity (%)” value is on record as “+++ (+++ is >600%)” and the EC50 is less than 1000 nM.

`Cc1cccc(C)c1-c1cc2nc(n1)NS(=O)(=O)c1cccc(c1)C(=O)N1C[C@@H](CN(C(=O)OC(C)(C)C)C[C@@H]1CCO)O2` (single isomer, unassigned) [Compound 137, tert-butyl 12-(2,6-dimethylphenyl)-20-(2-hydroxyethyl)-2,8,8-trioxo-15-oxa-8λ^6-thia-1,9,11,18,22-pentaazatetracyclo[14.4.1.13,7.110,14]tricosa-3(23),4,6,10(22),11,13-hexaene-18-carboxylate]: in test [1], the “Ent. B Max Activity (%)” value is recorded as “+++ (+++ is >600%)” and the EC50 was 1000 to 3000 nM.

In the case of `Cc1cccc(C)c1-c1cc2nc(n1)NS(=O)(=O)c1cccc(c1)C(=O)N1Cc3cc(C(C)(C)C)ccc3C(CO2)C1C` (single isomer, unassigned) [Compound 218, 21-tert-Butyl-12-(2,6-dimethylphenyl)-25-methyl-15-oxa-8λ^6-thia-1,9,11,26-tetraazapentacyclo[15.7.1.13,7.110,14.018,23]heptacosa-3,5,7(27),10,12,14(26),18,20,22-nonaene-2,8,8-trione], in test [1], the “Ent. B Max Activity (%)” value is “+ (+ is <30%)”.

For `Cc1cccc(C)c1-c1cc2nc(n1)NS(=O)(=O)c1cccc(c1)C(=O)N1CCN(C3CC4(CCCCC4)C3)[C@H](CC(C)C)[C@H](C1)O2` [Compound 120, (16S,17R)-12-(2,6-dimethylphenyl)-17-(2-methylpropyl)-18-{spiro[3.5]nonan-2-yl}-15-oxa-8λ^6-thia-1,9,11,18,22-pentaazatetracyclo[14.4.1.13,7.110,14]tricosa-3(23),4,6,10(22),11,13-hexaene-2,8,8-trione], in test [1], the “Ent. B Max Activity (%)” value was “+++ (+++ is >600%)” and the EC50 is less than 1000 nM.

For the compound `Cc1cccc(C)c1-c1cc2nc(n1)NS(=O)(=O)c1cccc(c1)C(=O)N1CCN(C)CC(C1)O2` (centres unmarked) [Compound 63], the EC50 in test [2] (setting [3]) lay within 3000 to 30000 nM. The “Ent. A Max Activity (%)” value in test [2] (setting [4]) was “+++ (+++ is >60%)”.

For `CC(=O)NCCN1CCN2C(=O)c3cccc(c3)S(=O)(=O)Nc3nc(cc(-c4c(C)cccc4C)n3)OC[C@H]2C1` [Compound 294], the 50% effective concentration (EC50) in test [2] (setting [3]) lay in the range of 3000 to 30000 nM. Further, in test [2] (setting [4]), the “Ent. A Max Activity (%)” value is “++ (++ is 30-60%)”.

Turning to `Cc1cccc(C)c1-c1cc2nc(n1)NS(=O)(=O)c1cccc(c1)C(=O)N1CCN(Cc3ccccc3)C[C@@H]1CO2` [Compound 164, (8R)-6-Benzyl-13-(2,6-dimethylphenyl)-10-oxa-17λ^6-thia-3,6,14,16,23-pentaazatetracyclo[16.3.1.111,15.03,8]tricosa-1(21),11,13,15(23),18(22),19-hexaene-2,17,17-trione], in test [2] (setting [3]), the EC50 is less than 1000 nM. For the same compound, the “Ent. A Max Activity (%)” value in test [2] (setting [4]) was “+++ (+++ is >60%)”.

Consider `Cc1cccc(C)c1-c1cc2nc(n1)NS(=O)(=O)c1cccc(c1)C(=O)N1CCN(C)C(CO2)C1` (centres unmarked) [Compound 316], for which the “Ent. A Max Activity (%)” value in test [2] (setting [4]) is on record as “+ (+ is <300%)”.

For the compound `Cc1cccc(C)c1-c1cc2nc(n1)NS(=O)(=O)c1cccc(c1)C(=O)N1CCN([C@@H](C)C(C)(C)C)C[C@H](C1)O2` (single isomer, unassigned) [Compound 73], in test [2] (Enteroid Assay A), the “Ent. A Max Activity (%)” value is recorded as “+++ (+++ is >600%)” and the 50% effective concentration (EC50) was less than 1000 nM.

As to `Cc1cccc(C)c1-c1cc2nc(n1)NS(=O)(=O)c1cccc(c1)C(=O)N1CCCN(CCC(C)(C)C)CC(C1)O2` (centres unmarked) [Compound 206, 18-(3,3-Dimethylbutyl)-12-(2,6-dimethylphenyl)-15-oxa-8λ^6-thia-1,9,11,18,23-pentaazatetracyclo[14.5.1.13,7.110,14]tetracosa-3,5,7(24),10,12,14(23)-hexaene-2,8,8-trione], in test [2] (Enteroid Assay A), the “Ent. A Max Activity (%)” value is reported as “++ (++ is 30-60%)” and the EC50 is less than 1000 nM.

As for `Cc1cccc(C)c1-c1cc2nc(n1)NS(=O)(=O)c1cccc(c1)C(=O)N1C[C@@H](CN(C3CCC(F)(F)CC3)C[C@@H]1CC(C)C)O2` [Compound 152], in test [2] (Enteroid Assay A), the “Ent. A Max Activity (%)” value is recorded as “++ (++ is 30-60%)” and the EC50 is less than 1000 nM.

`Cc1cccc(C)c1-c1cc2nc(n1)NS(=O)(=O)c1cccc(c1)C(=O)N1CCCC(O2)C1CC(C)C` (single isomer, unassigned) [Compound 230, 18-(2,6-Dimethylphenyl)-22-(2-methylpropyl)-2-oxa-14λ^6-thia-7,15,17,20-tetraazatetracyclo[14.3.1.13,7.19,13]docosa-1(20),9(21),10,12,16,18-hexaene-8,14,14-trione]: the EC50 in test [2] (setting [3]) was less than 1000 nM. Further, in test [2] (setting [4]), the “Ent. A Max Activity (%)” value is “+++ (+++ is >60%)”.

With `Cc1cccc(C)c1-c1cc2nc(n1)NS(=O)(=O)c1cccc(c1)C(=O)N1CCN(Cc3ccc(C#N)cc3)C[C@@H]1CO2` [Compound 270], in test [2] (setting [3]), the EC50 is 1000 to 3000 nM. Also, in test [2] (setting [4]), the “Ent. A Max Activity (%)” value is “+++ (+++ is >60%)”.

Take `Cc1cccc(C)c1-c1cc2nc(n1)NS(=O)(=O)c1cccc(c1)C(=O)N1C[C@@H](CNC[C@@H]1CCC(C)C)O2` [Compound 130, (16R,20S)-12-(2,6-Dimethylphenyl)-20-(3-methylbutyl)-15-oxa-8λ^6-thia-1,9,11,18,22-pentaazatetracyclo[14.4.1.13,7.110,14]tricosa-3(23),4,6,10(22),11,13-hexaene-2,8,8-trione]: in test [2] (Enteroid Assay A), the “Ent. A Max Activity (%)” value is on record as “+++ (+++ is >600%)” and the half-maximal effective concentration (EC50) was less than 1000 nM.
